Experimental data: patent publication EP0252983B1, “SALTS OF N-(VINYLOXIETHYL)DITHIOCARBAMIC ACID, METHOD OF OBTAINING THEREOF AND […] ON THEM” (priority 1985, dated 1987)
Where two headings read alike, the source gives them in different places.

Key:
Stereum hirsutum = assay: Mycelial growth inhibition on agar (contact activity); assay type: cell-based; conditions: Stereum hirsutum, 120 h; Wirkstoffkonzentration 0,003 %; Tabelle 3; read-out: Mycelhemmung, in %
Method: (§1) Die Prüfungen werden nach dem Verfahren zur Ermittlung der Kontaktaktivität durchgeführt. Man verwendet das in Wasser gelöste Kalium-N-(vinyloxyäthyl)dithiocarbamat, führt es in ein Nährmedium ein und vergießt auf Petri-Schalen. Nach 24 Stunden wird mit Pilzmyzelium nach einem Stichverfahren geimpft. Dann temperiert man die Schalen innerhalb von 5 Tagen bei einer zwischen 24 und 26 °C liegenden Temperatur und mißt den Durchmesser von Pilzkolonien, ermittelt den Prozentsatz der Hemmung des Myzelwachstums (S) ausgehend von Angaben am 5. Tag nach der Abbott-Formel [drawing 13] worin dc für den Durchmesser der Pilzkolonien, de für den Durchmesser von Pilzkolonien in der Schale stehen, wo ein die zu prüfenden Stoffe enthaltendes Medium vorhanden ist. Dieses Verfahren zur Ermittlung der mikrobiologischen Aktivität ist in anderen Beispielen verwendet.

Chaetomium globosum = assay: as above; assay type: cell-based
Method: as §1

Penicillium funiculosum = assay: as above; assay type: cell-based
Method: as §1

Paecilomyces varioti = assay: as above; assay type: cell-based; conditions: Paecilomyces, 120 h; Wirkstoffkonzentration 0,003 %; Tabelle 3; read-out: Mycelhemmung, in %
Method: as §1

Acremonium charticola = assay: as above; assay type: cell-based; conditions: Acremonium charticola, 120 h; Präparatkonzentration 0,0015 %; Würzeagar; read-out: Myzelhemmung in %
Psoroptes cuniculi = assay: Acaricidal activity on isolated mites; assay type: in vivo
Method: Die akarizide Aktivität der Stoffe wird an isolierten Milben Psoroptes cuniculi als Erreger der Psoroptesräude bei Kaninchen geprüft. Von frischen Verkrustungen von Kaninchen mit Psoroptesräude, werden zu diesem Zweck 50 Milbenexemplare (Larven, Nymphen, Imago) gewählt und in Petri-Schalen auf ein Filterpapierblatt übertragen. Dann bringt man auf Milben und die ganze Blattoberfläche 1,5 ml zu prüfende wäßrige Stofflösung in destilliertem Wasser auf. Die Schale wird mit Deckel verschlossen und in einen Thermostat bei 30 °C und Feuchtegehalt von 90 % angeordnet. Der Wirkstoff wird als wäßrige Lösung mit einer zwischen 0,0039 und 4 % liegenden Konzentration genommen. Als Vergleichsmuster dient gleichzeitig eine wäßrige Lösung von Chlorophos. Milben werden im Kontrollversuch (Kontrolle auf Lebensfähigkeit)mit 1,5 ml physiologischer Lösung behandelt und in einen anderen Thermostat unter gleichen Temperatur- und Feuchtigkeitsbedingungen aufgestellt.
Nach 1, 2, 4, 6 Stunden und alle 24 Stunden betrachtet man die Milben im Mikroskop und zählt die toten Milben. Aufgrund der Milbenvernichtung durch einen 24-stündigen Kontakt mit dem Wirkstoff ermittelt man die LK-50 Werte. Die Versuche werden 5mal wiederholt. Arithmetische Mittelwerte gibt Tabelle 14 an.

[1] = Solubility in water (descriptive); assay type: physicochemical
Pythium ultimum = assay: Soil fungicide test (fungal discs in treated soil); assay type: cell-based; set-up: key: Das Vorhandensein (+); das Fehlen (-) des wachsenden Myzels um die Scheibe herum; conditions: 160 mg/kg Boden
Method: (§2) Eine 50 g schwere Bodenprobe bringt man in ein Glasgefäß ein, sterilisiert innerhalb von 2 Stunden unter einem Druck von 2 atm, gibt dann dem Boden das Präparat als wäßrige Lösung ausgehend von 160 mg/kg zu, wonach in den Boden Scheiben mit Kulturen folgender Pilze Fusarium oxysporum, Verticillium dahliae, Rhizoctonia solani, Pythium ultimum untergebracht werden.
(§3) Nach 24 und 48 Stunden werden die Scheiben in fließendem Wasser, dann in sterilem Wasser gewaschen, auf sterilem Filterpapier getrocknet und auf eine reine Agarplatte gelegt. Das Vorhandensein (+) oder das Fehlen (-) des wachsenden Myzels um die Scheibe herum wies auf die Wirksamkeit des Präparats. Als Vergleichsmuster diente dabei Karbathion. Die Prüfergebnisse sind in der Tabelle 5 dargestellt.

Rhizoctonia solani = assay: Soil fungicide test (fungal discs in treated soil); assay type: cell-based; set-up: key: Das Vorhandensein (+); das Fehlen (-) des wachsenden Myzels um die Scheibe herum; conditions: 160 mg/kg Boden
Method: as §2, §3

Verticillium dahliae = assay: Soil fungicide test (fungal discs in treated soil); assay type: cell-based; set-up: key: Das Vorhandensein (+); das Fehlen (-) des wachsenden Myzels um die Scheibe herum; conditions: 160 mg/kg Boden
Method: as §2, §3

Fusarium oxysporum = assay: Soil fungicide test (fungal discs in treated soil); assay type: cell-based; set-up: key: Das Vorhandensein (+); das Fehlen (-) des wachsenden Myzels um die Scheibe herum; conditions: 160 mg/kg Boden
Method: as §2, §3

Acremonium cowum = assay: Mycelial growth inhibition on agar (contact activity); assay type: cell-based; conditions: 120 h, Würzeagar, read-out: Myzelhemmung in %
[2] = Storage stability (descriptive); assay type: physicochemical
Aspergillus niger = assay: Mycelial growth inhibition on agar (contact activity); assay type: cell-based; conditions: Aspergillus niger, 120 h; for inhibition of growth at 0.003 %: Wirkstoffkonzentration 0,003 %
Pseudomonas = assay: Bactericidal activity on agar (concentration of complete growth inhibition); assay type: cell-based; conditions: % bezogen auf den Wirkstoff; am 5. Tag; listed as Kaliumsalz
Micrococcus = assay: as above; assay type: cell-based; conditions: % bezogen auf den Wirkstoff; am 5. Tag; listed as Kaliumsalz
Bacillus = assay: as above; assay type: cell-based; conditions: % bezogen auf den Wirkstoff; am 5. Tag; listed as Kaliumsalz
Escherichia = assay: as above; assay type: cell-based; conditions: % bezogen auf den Wirkstoff; am 5. Tag; listed as Kaliumsalz

## C=COCCNC(=S)S [Kalium-N-(vinyloxyäthyl)dithiocarbamat]
Stereum hirsutum
  inhibition of growth at 0.003 %: 100%
Chaetomium globosum; Chaetomium globosum, 120 h, Wirkstoffkonzentration 0,003 %, Tabelle 3, read-out: Mycelhemmung, in %
  inhibition of growth at 0.003 %: 100%
Chaetomium globosum; gegen das Myzelium der Pilze Chaetomium globosum
  Aktivität übersteigt Polykarbazin (Vergleichsmuster): 10%
Penicillium funiculosum; Talaromyces funiculosus, 120 h, Wirkstoffkonzentration 0,003 %, Tabelle 3, read-out: Mycelhemmung, in %
  inhibition of growth at 0.003 %: 100%
Penicillium funiculosum; gegen Myzelium von Penicillium funiculosum
  Aktivität übersteigt Salizylanilid (Vergleichsmuster): 10%
Paecilomyces varioti
  inhibition of growth at 0.003 %: 100%
Acremonium charticola
  inhibition of growth at 0.0015 %: 100%
Psoroptes cuniculi; 24-stündiger Kontakt mit dem Wirkstoff
  LK-50 %: 0,00208%
Psoroptes cuniculi; Konzentration 0,0039 %
  Vernichtung von 100 % der Milben nach Stunden: 48 Stunden
Psoroptes cuniculi; Konzentration 0,0078 %
  Vernichtung von 100 % der Milben nach Stunden: 24 Stunden
Psoroptes cuniculi; Konzentration 0,0625 %
  Vernichtung von 100 % der Milben nach Stunden: 6 Stunden
Psoroptes cuniculi; Konzentration 0,125 bis 0,5 %
  Vernichtung von 100 % der Milben nach Stunden: 4 Stunden
Psoroptes cuniculi; gegenüber Chlorophos
  selektive Toxizität gegen Räudemilben, dem Chlorophos überlegen: ~400 mal
[1]
  Löslichkeit in Wasser: gut
Pythium ultimum; Haltedauer 24 Stunden
  wachsendes Myzel um die Scheibe: -
Pythium ultimum; Haltedauer 48 Stunden
  wachsendes Myzel um die Scheibe: -
Rhizoctonia solani; Haltedauer 24 Stunden
  wachsendes Myzel um die Scheibe: -
Rhizoctonia solani; Haltedauer 48 Stunden
  wachsendes Myzel um die Scheibe: -
Verticillium dahliae; Haltedauer 24 Stunden
  wachsendes Myzel um die Scheibe: -
Verticillium dahliae; Haltedauer 48 Stunden
  wachsendes Myzel um die Scheibe: -
Fusarium oxysporum; Haltedauer 24 Stunden
  wachsendes Myzel um die Scheibe: -
Fusarium oxysporum; Haltedauer 48 Stunden
  wachsendes Myzel um die Scheibe: -
Acremonium cowum; Präparatkonzentration 0,003 %
  inhibition of growth at 0.003 %: 100%
Acremonium cowum; Präparatkonzentration 0,006 %
  inhibition of growth at 0.006 %: 100%
[2]
  Lagerbeständigkeit: lagerbeständig
Aspergillus niger; Wirkstoffkonzentration 0,01 %, Kartoffel-Glukose-Nährmedium, read-out: Myzelhemmung in %
  inhibition of growth at 0.01 %: 100%
Aspergillus niger; Kartoffel-Glukose-Nährmedium, read-out: Myzelhemmung in %
  inhibition of growth at 0.003 %: 100%
Aspergillus niger; Tabelle 3, read-out: Mycelhemmung, in %
  inhibition of growth at 0.003 %: 100%
Pseudomonas
  Konzentrationen, welche das Bakterienwachstum völlig (100 %) hemmen: 0,05%
Micrococcus
  Konzentrationen, welche das Bakterienwachstum völlig (100 %) hemmen: 0,05%
Bacillus
  Konzentrationen, welche das Bakterienwachstum völlig (100 %) hemmen: 0,05%
Escherichia
  Konzentrationen, welche das Bakterienwachstum völlig (100 %) hemmen: 0,05%
